Results taken from ChEMBL document CHEMBL6087402, “Design, synthesis, and in vitro and in vivo biological evaluation of dihydroartemisinin derivatives as potent anti-cancer agents with ferroptosis-inducing and apoptosis-activating properties” (Eur J Med Chem, 2025).
pIC50: −log10 of the molar value. Blank lines part the entries; values can stand above or below the molecule they belong to. Calls of active or inactive are those of the source. The calls are words filed in the database; no cut-off is given here. Peptide text beside a SMILES is read from it. * marks the point of attachment. Cbz = O=C(OCc1ccccc1)*; CH2F = FC*

Assays:
[1] = tested on: HCT-116; assay: Cytotoxicity against human HCT-116 cells assessed as cell viability upto 20 uM; type: functional, cell-based
[2] = tested on: HCT-116; assay: Anti-proliferative activity against human HCT-116 cells incubated for 72 hrs by MTT assay; type: functional, cell-based; details: HCT-116, 72 h
[3] = tested on: HCT-116; assay: Inhibition of cell proliferation in human HCT-116 cells at 3 uM incubated for 12 hrs by EdU assay (reference value: 48.14 %); type: functional
[4] = Selectivity index, ratio of IC50 for human L02 cells to IC50 for human Bel-7402 cells; type: toxicity; details: L02 cells versus Bel-7402 cells, read-out: Ratio IC50
[5] = Selectivity index, ratio of IC50 for human L02 cells to IC50 for human SW620 cells; type: toxicity; details: L02 cells versus SW620 cells, read-out: Ratio IC50
[6] = Selectivity index, ratio of IC50 for human L02 cells to IC50 for human A549 cells; type: toxicity; details: L02 cells versus A549 cells, read-out: Ratio IC50
[7] = Selectivity index, ratio of IC50 for human L02 cells to IC50 for human HCT-116 cells; type: toxicity; details: L02 cells versus HCT-116 cells, read-out: Ratio IC50
[8] = tested on: A549; assay: Anti-proliferative activity against human A549 cells incubated for 72 hrs by MTT assay; type: functional, cell-based; details: A549, 72 h
[9] = Anti-proliferative activity against human L02 cells incubated for 72 hrs by MTT assay; type: toxicity, cell-based
[10] = tested on: Bel-7402; assay: Anti-proliferative activity against human Bel-7402 cells incubated for 72 hrs by MTT assay; type: functional, cell-based; details: Bel-7402, 72 h
[11] = tested on: SW-620; assay: Anti-proliferative activity against human SW620 cells incubated for 72 hrs by MTT assay; type: functional, cell-based; details: SW-620, 72 h
[12] = tested on: HCT-116; assay: Cytotoxicity against human HCT-116 cells assessed as cell viability at 5 uM; type: functional, cell-based
[13] = tested on: HCT-116; assay: Cytotoxicity against human HCT-116 cells assessed as cell viability at 10 uM; type: functional, cell-based

Structure (SMILES): CC(C)[C@H](NC(=O)OCc1ccccc1)C(=O)N[C@@H](C)C(=O)N[C@@H](CC(=O)O)C(=O)CF (Cbz-Val-Ala-Asp-CH2F)
Activity [1]: inactive

pIC50 [2]: 5.29
pIC50 [8]: 4.71
pIC50 [10]: 4.36
pIC50 [11]: 5.18
Structure (SMILES): C[C@H]1[C@@H](O)O[C@@H]2O[C@@]3(C)CC[C@H]4[C@H](C)CC[C@@H]1[C@@]24OO3 [ARTENIMOL]
inhibition at 3 µM [3]: 24.5%
selectivity ratio [4]: 0.2
selectivity ratio [5]: 1.28
selectivity ratio [6]: 0.43
selectivity ratio [7]: 1.65
IC50 at 72 h [9]: 8.43 µM

Structure (SMILES): CCCNC(=O)OC1O[C@@H]2O[C@@]3(C)CC[C@@H]4[C@H](C)CC[C@@H]([C@H]1C)[C@@]24OO3 (some centres undefined)
pIC50 [2]: < 5.00
selectivity ratio [4]: < 1.21
selectivity ratio [5]: 2.78
selectivity ratio [6]: 13.6
selectivity ratio [7]: 25.8
pIC50 [8]: < 5.00
IC50 at 72 h [9]: 12.1 µM
pIC50 [10]: < 5.00
pIC50 [11]: < 5.00

Structure (SMILES): CC(=O)N(O)CCCCCNC(=O)CCC(=O)N(O)CCCCCNC(=O)CCC(=O)N(O)CCCCCN
Activity [12]: inactive

Structure (SMILES): COc1ccc(NC(=O)OC2O[C@@H]3O[C@@]4(C)CC[C@@H]5[C@H](C)CC[C@@H]([C@H]2C)[C@@]35OO4)cc1 (some centres undefined)
pIC50 [2]: 6.04
selectivity ratio [4]: 4.46
selectivity ratio [5]: 34.9
selectivity ratio [6]: 6.38
selectivity ratio [7]: 40.2
pIC50 [8]: 5.24
IC50 at 72 h [9]: 37 µM
pIC50 [10]: 5.08
pIC50 [11]: 5.97

Structure (SMILES): Cc1ccc(NC(=O)OC2O[C@@H]3O[C@@]4(C)CC[C@@H]5[C@H](C)CC[C@@H]([C@H]2C)[C@@]35OO4)cc1 (some centres undefined)
pIC50 [2]: 6.23
selectivity ratio [4]: 1.93
selectivity ratio [5]: 19.8
selectivity ratio [6]: 7.82
selectivity ratio [7]: 26.5
pIC50 [8]: 5.70
IC50 at 72 h [9]: 15.6 µM
pIC50 [10]: 5.09
pIC50 [11]: 6.10

Structure (SMILES): CCOC(=O)c1ccc(NC2CCCCC2)c(N)c1
Activity [13]: inactive

Structure (SMILES): C[C@@H]1CC[C@H]2[C@@H](C)C(OC(=O)Nc3ccc(F)cc3)O[C@@H]3O[C@@]4(C)CC[C@H]1[C@]32OO4 (some centres undefined)
pIC50 [2]: 6.29
selectivity ratio [4]: 1.05
selectivity ratio [5]: 9.04
selectivity ratio [6]: 2.85
selectivity ratio [7]: 17.9
pIC50 [8]: 5.49
IC50 at 72 h [9]: 9.13 µM
pIC50 [10]: 5.06
pIC50 [11]: 6.00
